Test results: US10058558B2, “Pharmaceutical composition comprising N1-cyclic amine-N5-substituted biguanide derivatives as an ingredient for preventing or treating fibrosis” (ImmunoMet Therapeutics Inc., priority 2013, dated 2018)
Where two headings read alike, the source gives them in different places.

Tests used:
[1] = system: peritoneal mesothelial cells
Protocol: That is, this experiment was designed to examine the morphological change in the peritoneal mesothelial cells by high glucose treatment along with the expression levels of mRNA and proteins of fibrosis-mediating materials and the ECM-related materials.
To this end, the peritonea of the male wistar rats were dissected and their peritoneal mesothelial cells were subjected to primary culture using 0.25% trypsin-EDTA. The experiment was performed after dividing them into the following three groups:

[2] = system: Snail; assay: Snail expression in MCF7 cells (EMT-suppressing effect)

## CC(=O)O.N=C(NC(=N)N1CCCC1)Nc1ccc(OC(F)(F)F)cc1 [Example 44, N1-pyrrolidine-N5-(4-trifluoromethoxy)phenyl biguanide acetate [N-(N-(4-(trifluoromethoxy)phenyl)carbamimidoyl)pyrrolidine-1-carboximidamideacetate]]
[1]
  morphology of peritoneal mesothelial cells turned into myofibroblasts by high glucose treatment: returned to maintain a shape similar to that of the normal ones (a cobblestone shape)
[2]
  suppression of the expression of Snail: strongly suppress the expression of Snail

## CN(C)C(=N)N=C(N)N [metformin]
[2]; MCF7 cells, 1000 μM, FIG. 1
  suppression of the expression of Snail: failed to suppress the expression of Snail

## [H]/N=C(/N)N/C(=N/[H])NCCc1ccccc1 [phenformin]
[2]; MCF7 cells, 10 μM, FIG. 1
  suppression of the expression of Snail: did not show any effect regarding the suppression of Snail expression
